# Data from patent US9440982B2 (Eolas Therapeutics, Inc., priority 2012, dated 2016).
# Legend:
# [1] = target: T1, CYP3A4 (Homo sapiens, UniProt P08684); assay: Cytochrome P450 inhibition assay (midazolam hydroxylation); format: in vitro ADME; settings: human, human liver microsomes, probe midazolam (hydroxylation to 1′-hydroxymidazolam), 10 μM test compound, midazolam at approximately its Km
# T1 construct: pre-incubated with human liver microsomes and NADPH; from tissue; host or cells: human liver microsomes
# Method in brief: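 Percent inhibition of midazolam 1′-hydroxylation by 10 μM compound was measured, midazolam dosed at about Km. Time-dependent inhibition was probed by a 30 min preincubation of compound with human liver microsomes and NADPH ahead of substrate, compared against samples without preincubation.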
# [2] = target: T2, OX2 (Homo sapiens, UniProt O43614); assay: Orexin receptor cell-based functional assay, [Ca2+]i by FLIPR, CHO-OX2 cells; settings: [Ca2+]i by FLIPR, antagonist dose-range 0.1 nM-10 μM, EC90 of OXA, read-out: OX2
# T2 construct: expressed in transfected cells; host or cells: CHO (CHO-OX2, kept under selection antibiotic)
# T2 sequence (O43614 1-444): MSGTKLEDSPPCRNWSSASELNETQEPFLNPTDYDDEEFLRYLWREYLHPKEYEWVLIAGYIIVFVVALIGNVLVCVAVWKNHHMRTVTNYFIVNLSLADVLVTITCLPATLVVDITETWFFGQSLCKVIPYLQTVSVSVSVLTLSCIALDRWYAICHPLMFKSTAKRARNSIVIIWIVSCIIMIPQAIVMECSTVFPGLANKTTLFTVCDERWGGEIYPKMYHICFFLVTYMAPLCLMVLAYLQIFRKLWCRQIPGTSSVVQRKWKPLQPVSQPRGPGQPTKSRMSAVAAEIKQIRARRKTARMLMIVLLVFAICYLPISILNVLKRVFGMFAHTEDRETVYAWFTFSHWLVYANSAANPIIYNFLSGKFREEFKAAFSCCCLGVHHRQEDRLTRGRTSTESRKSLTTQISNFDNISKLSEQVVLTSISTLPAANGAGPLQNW
# Protocol: Measurement of [Ca^2+]i using a FLIPR: CHO—OX1 or CHO—OX2 cells are seeded into black-walled clear-base 384-well plates (Costar) at a density of 20,000 cells per well in F12-K medium supplemented with 10% FBS and selection antibiotic (500 ug/ml G418 or 15 ug/ml Blasticidin) and cultured overnight. The cells are incubated with equal volume of calcium4 loading buffer (Molecular Devices, Inc.) containing 2.5 mM probenecid at 37° C. for 30 min, followed by putative OX1 or OX2 receptor antagonists (dose-range 0.1 nM-10 μM) for another 30 min.
# The cells are incubated with equal volume of calcium6 loading buffer (Molecular Devices, Inc.) containing 2.5 mM probenecid at 37° C. for 2 h, followed by test compounds (dose-range 0.1 nM-10 μM) for another 30 min.
# [3] = target: T3, OX1 (Homo sapiens, UniProt O43613); assay: Orexin receptor cell-based functional assay, [Ca2+]i by FLIPR, CHO-OX1 cells; settings: CHO-OX1 cells, [Ca2+]i by FLIPR, antagonist dose-range 0.1 nM-10 μM, EC90 of OXA; read-out: OX1
# T3 construct: expressed in transfected cells; host or cells: CHO (CHO-OX1, kept under selection antibiotic)
# T3 sequence (O43613 1-425): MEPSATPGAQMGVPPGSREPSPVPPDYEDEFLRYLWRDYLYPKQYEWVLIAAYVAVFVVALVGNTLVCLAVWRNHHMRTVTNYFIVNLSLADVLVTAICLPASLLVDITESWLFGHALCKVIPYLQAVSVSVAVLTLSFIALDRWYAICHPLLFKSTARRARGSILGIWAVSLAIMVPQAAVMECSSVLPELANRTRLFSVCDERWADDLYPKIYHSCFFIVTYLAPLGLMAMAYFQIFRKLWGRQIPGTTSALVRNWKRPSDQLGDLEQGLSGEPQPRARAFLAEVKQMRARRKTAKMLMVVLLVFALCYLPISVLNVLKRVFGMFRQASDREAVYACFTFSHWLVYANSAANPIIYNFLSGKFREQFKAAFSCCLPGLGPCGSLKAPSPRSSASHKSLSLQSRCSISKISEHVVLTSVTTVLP
# Method in brief: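 Antagonist mode FLIPR calcium read in CHO-OX1 and CHO-OX2 lines. Test compounds, dosed 0.1 nM-10 μM, preincubated 30 min after 37° C dye loading with 2.5 mM probenecid (calcium4 for 30 min or calcium6 for 2 h).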
# T1 sequence (P08684 whole entry): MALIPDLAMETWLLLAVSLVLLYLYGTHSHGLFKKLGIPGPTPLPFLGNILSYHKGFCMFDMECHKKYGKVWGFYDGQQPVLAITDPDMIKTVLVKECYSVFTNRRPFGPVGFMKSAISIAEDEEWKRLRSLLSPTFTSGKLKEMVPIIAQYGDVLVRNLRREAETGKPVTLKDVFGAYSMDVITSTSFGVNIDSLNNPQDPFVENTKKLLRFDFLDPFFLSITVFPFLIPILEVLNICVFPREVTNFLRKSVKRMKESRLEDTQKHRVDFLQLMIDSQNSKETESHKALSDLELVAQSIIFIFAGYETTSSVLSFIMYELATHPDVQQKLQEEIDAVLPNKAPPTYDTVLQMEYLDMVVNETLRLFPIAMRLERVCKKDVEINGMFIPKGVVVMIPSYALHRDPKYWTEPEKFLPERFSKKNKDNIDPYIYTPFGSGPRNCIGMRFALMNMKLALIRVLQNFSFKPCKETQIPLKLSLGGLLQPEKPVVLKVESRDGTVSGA
inhibition at 10 µM [1],IC50 [2],IC50 [3],Compound
54%,2300 nM,7 nM,Cc1ccc(-n2nccn2)c(C(=O)N2CCC[C@@H](C)[C@H]2COc2ccc(C(F)(F)F)cn2)c1 [Example A106]
51%,> 5000 nM,10 nM,"Cc1ccc(-n2nccn2)c(C(=O)N2CCC[C@@H](C)[C@H]2CNc2ncc(Cl)cc2F)n1 [Example A192, ((2S,3R)-2-(((5-Chloro-3-fluoropyridin-2-yl)amino)methyl)-3-methylpiperidin-1-yl)(6-methyl-3-(2H-1,2,3-triazol-2-yl)pyridin-2-yl)methanone]"
87%,490 nM,1 nM,"C[C@@H]1CCCN(C(=O)c2ccc(F)c(F)c2-n2nccn2)[C@@H]1CNc1ccc(C(F)(F)F)cn1 [Example A324, (3,4-Difluoro-2-(2H-1,2,3-triazol-2-yl)phenyl)((2S,3R)-3-methyl-2-(((5-(trifluoromethyl)pyridin-2-yl)amino)methyl)piperidin-1-yl)methanone]"
80%,4100 nM,2 nM,"C[C@@H]1CCCN(C(=O)c2ccc(F)c(F)c2-n2nccn2)[C@@H]1CNc1ncc(C(F)(F)F)cn1 [Example A325, (3,4-difluoro-2-(2H-1,2,3-triazol-2-yl)phenyl)((2S,3R)-3-methyl-2-(((5-(trifluoromethyl)pyrimidin-2-yl)amino)methyl)piperidin-1-yl)methanone]"
62%,> 5000 nM,2 nM,"C[C@@H]1CCCN(C(=O)c2c(F)ccc(F)c2-n2nccn2)[C@@H]1CNc1ccc(C(F)(F)F)cn1 [Example A332, (3,6-Difluoro-2-(2H-1,2,3-triazol-2-yl)phenyl)((2S,3R)-3-methyl-2-(((5-(trifluoromethyl)pyridin-2-yl)amino)methyl)piperidin-1-yl)methanone]"
38%,> 5000 nM,15 nM,"C[C@@H]1CCCN(C(=O)c2c(F)ccc(F)c2-n2nccn2)[C@@H]1CNc1ncc(C(F)(F)F)cn1 [Example A333, (3,6-difluoro-2-(2H-1,2,3-triazol-2-yl)phenyl)((2S,3R)-3-methyl-2-(((5-(trifluoromethyl)pyrimidin-2-yl)amino)methyl)piperidin-1-yl)methanone]"
54%,500 nM,2 nM,"C[C@@H]1CCCN(C(=O)c2c(F)ccc(F)c2-c2ncccn2)[C@@H]1CNc1ccc(C(F)(F)F)cn1 [Example A334, (3,6-difluoro-2-(pyrimidin-2-yl)phenyl)((2S,3R)-3-methyl-2-(((5-(trifluoromethyl)pyridin-2-yl)amino)methyl)piperidin-1-yl)methanone]"
44%,> 5000 nM,4 nM,"C[C@@H]1CCCN(C(=O)c2c(F)ccc(F)c2-c2ncccn2)[C@@H]1CNc1ncc(C(F)(F)F)cn1 [Example A335, (3,6-difluoro-2-(pyrimidin-2-yl)phenyl)((2S,3R)-3-methyl-2-(((5-(trifluoromethyl)pyrimidin-2-yl)amino)methyl)piperidin-1-yl)methanone]"
83%,380 nM,1 nM,"Cc1cc(F)cc(C(=O)N2CCC[C@@H](C)[C@H]2CNc2ccc(C(F)(F)F)cn2)c1-c1ncccn1 [Example A342, (5-Fluoro-3-methyl-2-(pyrimidin-2-yl)phenyl)((2S,3R)-3-methyl-2-(((5-(trifluoromethyl)pyridin-2-yl)amino)methyl)piperidin-1-yl)methanone]"
75%,2800 nM,2 nM,"Cc1c(F)ccc(C(=O)N2CCC[C@@H](C)[C@H]2CNc2ccc(C(F)(F)F)cn2)c1-n1nccn1 [Example A344, (4-Fluoro-3-methyl-2-(2H-1,2,3-triazol-2-yl)phenyl)((2S,3R)-3-methyl-2-(((5-(trifluoromethyl)pyridin-2-yl)amino)methyl)piperidin-1-yl)methanone]"
60%,> 5000 nM,1 nM,"Cc1c(F)ccc(C(=O)N2CCC[C@@H](C)[C@H]2CNc2ncc(C(F)(F)F)cn2)c1-n1nccn1 [Example A345, (4-fluoro-3-methyl-2-(2H-1,2,3-triazol-2-yl)phenyl)((2S,3R)-3-methyl-2-(((5-(trifluoromethyl)pyrimidin-2-yl)amino)methyl)piperidin-1-yl)methanone]"
62%,4200 nM,–,"Cc1c(F)ccc(C(=O)N2CCC[C@@H](C)[C@H]2CNc2ccc(C(F)(F)F)cn2)c1-c1ncccn1 [Example A346, (4-fluoro-3-methyl-2-(pyrimidin-2-yl)phenyl)((2S,3R)-3-methyl-2-(((5-(trifluoromethyl)pyridin-2-yl)amino)methyl)piperidin-1-yl)methanone]"
35%,> 5000 nM,2 nM,"Cc1c(F)ccc(C(=O)N2CCC[C@@H](C)[C@H]2CNc2ncc(C(F)(F)F)cn2)c1-c1ncccn1 [Example A347, (4-fluoro-3-methyl-2-(pyrimidin-2-yl)phenyl)((2S,3R)-3-methyl-2-(((5-(trifluoromethyl)pyrimidin-2-yl)amino)methyl)piperidin-1-yl)methanone]"
77%,> 4000 nM,2 nM,"Cc1cc(F)cc(C(=O)N2CCC[C@@H](C)[C@H]2CNc2ccc(C(F)(F)F)cn2)c1-n1nccn1 [Example A348, (5-fluoro-3-methyl-2-(2H-1,2,3-triazol-2-yl)phenyl)((2S,3R)-3-methyl-2-(((5-(trifluoromethyl)pyridin-2-yl)amino)methyl)piperidin-1-yl)methanone]"
59%,> 1000 nM,2 nM,"Cc1cc(F)cc(C(=O)N2CCC[C@@H](C)[C@H]2CNc2ncc(C(F)(F)F)cn2)c1-n1nccn1 [Example A349, (5-fluoro-3-methyl-2-(2H-1,2,3-triazol-2-yl)phenyl)((2S,3R)-3-methyl-2-(((5-(trifluoromethyl)pyrimidin-2-yl)amino)methyl)piperidin-1-yl)methanone]"
49%,790 nM,4 nM,"Cc1ccc(F)c(C(=O)N2CCC[C@@H](C)[C@H]2CNc2ccc(C(F)(F)F)cn2)c1-c1ncccn1 [Example A354, (6-fluoro-3-methyl-2-(pyrimidin-2-yl)phenyl)((2S,3R)-3-methyl-2-(((5-(trifluoromethyl)pyridin-2-yl)amino)methyl)piperidin-1-yl)methanone]"
25%,870 nM,–,"Cc1ccc(F)c(C(=O)N2CCC[C@@H](C)[C@H]2CNc2ncc(C(F)(F)F)cn2)c1-c1ncccn1 [Example A355, (6-fluoro-3-methyl-2-(pyrimidin-2-yl)phenyl)((2S,3R)-3-methyl-2-(((5-(trifluoromethyl)pyrimidin-2-yl)amino)methyl)piperidin-1-yl)methanone]"
86%,3900 nM,2 nM,"Cc1ccc(C(=O)N2CCC[C@@H](C)[C@H]2CNc2ccc(C(F)(F)F)cn2)c(-n2nccn2)c1F [Example A356, (3-Fluoro-4-methyl-2-(2H-1,2,3-triazol-2-yl)phenyl)((2S,3R)-3-methyl-2-(((5-(trifluoromethyl)pyridin-2-yl)amino)methyl)piperidin-1-yl)methanone]"
